How the values were obtained:
[1] = Stability test in PBS and mouse plasma (HPLC); type: in vitro ADME
Method: The PBS solution (1 mM, pH 7.4) of Compound (J1-1) prepared in Example 1 of the present invention was incubated at 37 °C. Corresponding samples (n=3) were taken on Day 1, Day 2, Day 3, Day 5, and Day 7, and the contents of (J1-1) and SN38 were determined by HPLC.
Mouse plasma stability: 40 µL of the PBS solution (1 mM, pH 7.4) of Compound (J1-1) prepared in Example 1 of the present invention was mixed with 360 µL of mouse plasma and incubated in a shaker at 37 °C. Corresponding samples (n=3) were taken on Day 1, Day 2, Day 3, Day 5, and Day 7, precipitated with cold acetonitrile, centrifuged at 4 °C for 30 min, and the supernatant was collected. The content of SN38 was determined by HPLC.

[2] = test system: HCT116 cell xenograft tumor model; experiment: Antitumor effect in HCT116 xenograft nude mice; type: in vivo, BALB/c nude mice
Method: Female BALB/c nude mice (4 weeks old) were selected and acclimated for three days in a barrier facility. HCT116 cells (5×10^6) were subcutaneously inoculated into the right flank of nude mice. When tumors grew to 80-100 mm^3, tumor-bearing nude mice were randomly divided into four groups with six mice per group. Normal saline (blank group), 30 mg/kg of (J1-1), and 60 mg/kg of Compound (J1-1) prepared in Example 1 of the present invention (supplementary treatment group) were administered intravenously via the tail vein, respectively. Administration was performed twice a week for a total of five times. Body weight and tumor volume of nude mice were observed and recorded.

β-glucuronidase = molecular target: T1, β-glucuronidase (Homo sapiens, UniProt P08236); experiment: Enzyme release assay with β-glucuronidase (SN38 by HPLC); type: biochemical; details: for release of SN38 triggered by β-glucuronidase: β-glucuronidase 300 U, 37 °C, within 45 min
T1 sequence (P08236 23-651): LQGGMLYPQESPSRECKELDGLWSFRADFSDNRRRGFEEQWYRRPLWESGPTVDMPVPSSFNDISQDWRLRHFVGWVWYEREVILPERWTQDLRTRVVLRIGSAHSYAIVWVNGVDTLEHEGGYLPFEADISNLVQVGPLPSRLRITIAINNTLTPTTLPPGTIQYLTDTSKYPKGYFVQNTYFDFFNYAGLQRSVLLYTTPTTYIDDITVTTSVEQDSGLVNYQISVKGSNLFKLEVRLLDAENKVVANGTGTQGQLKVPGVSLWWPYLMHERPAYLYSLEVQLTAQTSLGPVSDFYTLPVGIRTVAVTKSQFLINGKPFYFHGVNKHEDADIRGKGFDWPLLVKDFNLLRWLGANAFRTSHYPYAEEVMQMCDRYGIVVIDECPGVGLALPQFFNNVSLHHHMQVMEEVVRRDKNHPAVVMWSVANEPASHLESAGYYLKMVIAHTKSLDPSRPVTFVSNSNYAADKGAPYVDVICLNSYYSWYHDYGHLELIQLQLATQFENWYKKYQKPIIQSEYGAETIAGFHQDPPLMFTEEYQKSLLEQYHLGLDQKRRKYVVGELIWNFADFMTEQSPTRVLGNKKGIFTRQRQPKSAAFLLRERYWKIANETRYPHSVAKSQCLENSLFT
Method: Compound (J1-1) solution (100 µM, pH 7.4 or pH 5.5) prepared in Example 1 of the present invention was mixed with β-glucuronidase (300 U) and incubated in a shaker at 37 °C. Corresponding samples (n=3) were taken at 1 min, 2 min, 5 min, 10 min, 20 min, 45 min, 60 min, and 90 min, precipitated with cold acetonitrile, centrifuged at 4 °C for 15 min, and the supernatant was collected. The content of SN38 was determined by HPLC.

[3] = test system: HCT116, A549, MCF-7, HepG2, and 4T1 cells; experiment: In vitro drug cytotoxicity assay (MTT) with or without β-glucuronidase; type: cell-based; details: 72 h
Method: The in vitro cytotoxicity of Compound (J1-1) prepared in Example 1 of the present invention against HCT116, A549, MCF-7, HepG2, and 4T1 cells, as well as that in the presence of β-glucuronidase, was determined by MTT assay. A total of 200 µL of culture medium containing 4000 cells was seeded into each well of a 96-well plate. After incubation for adherence for 24 h in an incubator (37 °C, 5% CO2), the culture medium was removed, and 200 µL of drug solutions at various concentrations with or without β-glucuronidase supplementation was added, followed by incubation for 72 h. The medium was removed, 100 µL of MTT solution (0.5 mg/mL) was added to each well, and the plate was incubated for 3 h. Subsequently, 100 µL of triple solution was added to each well, and the plate was incubated for 12 h. The absorbance (OD) at 570 nm was measured using a microplate reader. Cell viability was calculated according to the following formula: Cell viability % = (ODsample −ODblank)/(ODcontrol −ODblank) × 100% [formula]
ODsampleis the absorbance of the drug-treated group, ODblank is the absorbance of complete medium alone, ODcontrol is the absorbance of the cell-seeded group without drug treatment.

CCc1c2c(nc3ccc(OC(=O)N(C)c4cc([N+](=O)[O-])ccc4OCc4ccc(O[C@@H]5O[C@H](C(=O)O)[C@@H](O)[C@H](O)[C@H]5O)c(NC(=O)CCNC(=O)CCCCCN5C(=O)C=CC5=O)c4)cc13)-c1cc3c(c(=O)n1C2)COC(=O)[C@]3(O)CC [Compound J1-1]
release of SN38 ([1]; mouse plasma with PBS at pH 7.4, 37 °C, within seven days): less than 2% | in vitro and in vivo stability ([1]; summary statement): excellent | tumor volume ([2]; 30 mg/kg and 60 mg/kg intravenously via tail vein, twice a week, five administrations): significantly reduced or even eliminated | survival period ([2]; HCT116 xenograft mouse model, summary statement): significantly prolonged | release of the active drug (β-glucuronidase; conditions simulating the tumor microenvironment, summary statement): can rapidly release the active drug | release of SN38 triggered by β-glucuronidase (β-glucuronidase; pH 5.5, 100 µM): 100% | release of SN38 triggered by β-glucuronidase (β-glucuronidase; pH 7.4, 100 µM): 100% | in vitro cytotoxicity in the presence of β-glucuronidase ([3]; with β-glucuronidase): could release the active drug upon β-glucuronidase triggering, thereby achieving the purpose of killing tumor cells | in vitro cytotoxicity ([3]; without β-glucuronidase): low cytotoxicity
